# Laboratory results published in US9278068B2, “Vesicle compositions” (Sensulin LLC, priority 2011, dated 2016).
# Tested on: not listed separately
# Test: Binding assay: competition with ConA-FITC on glucose-terminated magnetic beads
# Conditions: relative to ConA; 2.4 μM ConA-FITC, boronic acid 2.5 μM to 20 μM, PBS pH 7.2
# Protocol: The binding affinity of boronic acid derivatives to glucose was determined by competition assay using ConcanavalinA (ConA) as the competitive standard, and varying concentrations of the boronic acid derivatives. Carboxy-terminated magnetic beads were activated by suspending the beads in 100 mM 2-(N-morpholino)ethanesulfonic acid (MES) buffer (pH 4.5). Glucosamine (100 mg/mL) was conjugated to the activated magnetic beads using carbodiimide coupling with 1-ethyl-3-(3-dimethylaminopropyl)carbodiimide (EDC) as a crosslinker. The conjugation reaction was carried out in a 96 well plate. The reaction was run for 24 h. The beads were separated by placing the microplate on a magnetic separator and were washed thoroughly with PBS at pH 7.2 to remove unbound glucose, excess EDC, and N-hydroxysulfosuccinimide (Sulfo-NHS).
# The glucose terminated beads were co-incubated for 1 h with 2.4 μM ConA (a known binder of carbohydrates) fluorescently tagged with fluorescein isothiocyanate (ConA-FITC), and titrated with concentrations ranging from 2.5 μM to 20 μM of each boronic acid derivative tested. The following controls were used: (A) carboxy-terminated magnetic beads (not conjugated to glucose) were treated with ConA-FITC to determine non-specific binding; and (B) glucose conjugated beads were treated with a high concentration of non-fluorescent ConA to determine maximal binding.
# The wells were washed three times with PBS at pH 7.2 to remove unbound boronic acid derivatives and FITC-ConA. The beads were re-suspended in PBS and stirred for 15 min at rt before measuring FITC fluorescence (excitation: 495 nm, top emission: 520 nm; 6 flashes per well; average of n=3 wells in a Flexstation 11^384 microplate reader to quantify the amount of glucose bound to the boronic acids). The fluorescence intensity was measured and used as an indication of the amount of ConA bound to the surface of the beads, or [ConAs]. The ConA-sugar interaction was expected to be inhibited by the boronic acid derivatives, which can bind the sugar molecules and displace the bound ConA-FITC, thereby causing a decrease in fluorescence intensity of the mixture.
# The binding constant of the boronic acid derivatives was calculated from the fluorescence intensity. The reduction of fluorescence intensity is related to [ConAs] by Equation 2.
# [formula] The relationship between [ConAs] and the amount of boronic acid [BA] is given by Equation 3.
# [formula] Simple rearrangement yields Equation 4, from which the ratio of the two equilibrium constants (KConA/KBA) can be derived.
# [formula] • The concentration of sugar sites (S1) can be calculated from the intercept of a plot of 1/[ConAs] vs 1/[BA].
row,Sugar Binding Affinity Log(KaBA/KaConA),SMILES
1,−1.24,O=Cc1cc(B(O)O)cs1 [5-formylthiophene-3-boronic acid]
2,−0.14,"CN(C)c1cccc(B(O)O)c1 [3-(N,N-dimethylamino)phenyl boronic acid]"
3,−1.03,NC(=O)c1ccc(B(O)O)cc1 [4-aminocarbonylphenylboronic acid]
4,−1.03,OB(O)c1cccc(Cl)c1 [3-chlorophenylboronic acid]
5,−2.9,OB(O)c1cccnc1Br [2-bromopyridine-3-boronic acid]
6,−2.3,OB(O)c1ccc(-c2ccccc2)s1 [5-phenyl-2-thienylboronic acid]
7,−0.009,CCCc1ccc(B(O)O)cc1 [4-propylphenylboronic acid]

row,SMILES,Sugar Binding Affinity Log(KaBA/KaConA)
1,O=C(Cl)c1ccc(B2OB(c3ccc(C(=O)Cl)cc3)OB(c3ccc(C(=O)Cl)cc3)O2)cc1 [4-chlorocarbonylphenylboronic anhydride],−2.08
2,"OB(O)c1ccc(Cl)cc1Cl [2,4-dicholorophenylboronic acid]",−0.93
3,"CC(C)(C)Oc1ncc(B(O)O)c(OC(C)(C)C)n1 [2,4-di-tert-butoxypyrimidin-5-ylboronic acid]",0.008
4,OB(O)c1ccc(O)cc1 [4-hydroxyphenylboronic acid],−1.08

# Tested on: NF-κB
# Test: not given
# Conditions: human
SMILES,Inflammation (PCC) 40 nM,Inflammation (PCC) 80 nM,Inflammation (PCC) 160 nM
OB(O)c1ccc(Cl)cc1 [4-chlorophenylboronic acid],−0.1494,0.01664,0

# Tested on: HeLa cells
# Test: not given
# Conditions: human
SMILES,MTT (% Cell Survival) 40 nM [%],MTT (% Cell Survival) 80 nM [%],MTT (% Cell Survival) 160 nM [%]
OB(O)c1ccc(Cl)cc1 [4-chlorophenylboronic acid],51.23,81.65,56.97

# Tested on: HeLa cells
# Test: MTT assay for cytotoxicity
# Conditions: 40 nM, 2 h
row,SMILES,MTT (% Cell Survival) 40 nM [%]
1,O=C(Cl)c1ccc(B2OB(c3ccc(C(=O)Cl)cc3)OB(c3ccc(C(=O)Cl)cc3)O2)cc1 [4-chlorocarbonylphenylboronic anhydride],114.54
2,O=Cc1cc(B(O)O)cs1 [5-formylthiophene-3-boronic acid],86.87
3,"CN(C)c1cccc(B(O)O)c1 [3-(N,N-dimethylamino)phenyl boronic acid]",123.37
4,"OB(O)c1ccc(Cl)cc1Cl [2,4-dicholorophenylboronic acid]",99.29
5,NC(=O)c1ccc(B(O)O)cc1 [4-aminocarbonylphenylboronic acid],86.57
6,OB(O)c1cccc(Cl)c1 [3-chlorophenylboronic acid],97.1779
7,OB(O)c1cccnc1Br [2-bromopyridine-3-boronic acid],102.96
8,"CC(C)(C)Oc1ncc(B(O)O)c(OC(C)(C)C)n1 [2,4-di-tert-butoxypyrimidin-5-ylboronic acid]",100.46
9,OB(O)c1ccc(-c2ccccc2)s1 [5-phenyl-2-thienylboronic acid],100.56
10,OB(O)c1ccc(O)cc1 [4-hydroxyphenylboronic acid],203.926
11,CCCc1ccc(B(O)O)cc1 [4-propylphenylboronic acid],202.674
12,OB(O)c1cc(Br)cs1 [3-bromothiophene-5-boronic acid],116.67
13,COc1ccc(C#N)cc1B(O)O [5-cyano-2-methoxyphenylboronic acid],81.55
14,OB(O)c1c(F)c(F)c(F)c(F)c1F [pentafluorophenylboronic acid],65.63
15,CCCOc1ccccc1B(O)O [2-propoxyphenylboronic acid],45.7459
16,OB(O)C1CC1 [cyclopropylboronic acid],81.55
17,OB(O)/C=C/c1ccccc1 [trans-2-Phenylvinylboronic acid],72.90

# Same assay, conditions: 80 nM, 2 h
row,SMILES,MTT (% Cell Survival) 80 nM [%]
1,O=C(Cl)c1ccc(B2OB(c3ccc(C(=O)Cl)cc3)OB(c3ccc(C(=O)Cl)cc3)O2)cc1 [4-chlorocarbonylphenylboronic anhydride],107.21
2,O=Cc1cc(B(O)O)cs1 [5-formylthiophene-3-boronic acid],87.03
3,"CN(C)c1cccc(B(O)O)c1 [3-(N,N-dimethylamino)phenyl boronic acid]",86.2247
4,"OB(O)c1ccc(Cl)cc1Cl [2,4-dicholorophenylboronic acid]",81.59
5,NC(=O)c1ccc(B(O)O)cc1 [4-aminocarbonylphenylboronic acid],97.67
6,OB(O)c1cccc(Cl)c1 [3-chlorophenylboronic acid],73.129
7,OB(O)c1cccnc1Br [2-bromopyridine-3-boronic acid],94.00
8,"CC(C)(C)Oc1ncc(B(O)O)c(OC(C)(C)C)n1 [2,4-di-tert-butoxypyrimidin-5-ylboronic acid]",90.60
9,OB(O)c1ccc(-c2ccccc2)s1 [5-phenyl-2-thienylboronic acid],81.24
10,OB(O)c1ccc(O)cc1 [4-hydroxyphenylboronic acid],198.184
11,CCCc1ccc(B(O)O)cc1 [4-propylphenylboronic acid],202.92
12,OB(O)c1cc(Br)cs1 [3-bromothiophene-5-boronic acid],97.63
13,COc1ccc(C#N)cc1B(O)O [5-cyano-2-methoxyphenylboronic acid],49.84
14,OB(O)c1c(F)c(F)c(F)c(F)c1F [pentafluorophenylboronic acid],60.00
15,CCCOc1ccccc1B(O)O [2-propoxyphenylboronic acid],42.2099
16,OB(O)C1CC1 [cyclopropylboronic acid],107.79
17,OB(O)/C=C/c1ccccc1 [trans-2-Phenylvinylboronic acid],99.51

# Same assay, conditions: 160 nM, 2 h
row,SMILES,MTT (% Cell Survival) 160 nM [%]
1,O=C(Cl)c1ccc(B2OB(c3ccc(C(=O)Cl)cc3)OB(c3ccc(C(=O)Cl)cc3)O2)cc1 [4-chlorocarbonylphenylboronic anhydride],79.46
2,O=Cc1cc(B(O)O)cs1 [5-formylthiophene-3-boronic acid],73.80
3,"CN(C)c1cccc(B(O)O)c1 [3-(N,N-dimethylamino)phenyl boronic acid]",85.91
4,"OB(O)c1ccc(Cl)cc1Cl [2,4-dicholorophenylboronic acid]",79.9
5,NC(=O)c1ccc(B(O)O)cc1 [4-aminocarbonylphenylboronic acid],57.28
6,OB(O)c1cccc(Cl)c1 [3-chlorophenylboronic acid],38.55
7,OB(O)c1cccnc1Br [2-bromopyridine-3-boronic acid],87.88
8,"CC(C)(C)Oc1ncc(B(O)O)c(OC(C)(C)C)n1 [2,4-di-tert-butoxypyrimidin-5-ylboronic acid]",71.81
9,OB(O)c1ccc(-c2ccccc2)s1 [5-phenyl-2-thienylboronic acid],86.23
10,OB(O)c1ccc(O)cc1 [4-hydroxyphenylboronic acid],172.8
11,CCCc1ccc(B(O)O)cc1 [4-propylphenylboronic acid],164.2
12,OB(O)c1cc(Br)cs1 [3-bromothiophene-5-boronic acid],62.08
13,COc1ccc(C#N)cc1B(O)O [5-cyano-2-methoxyphenylboronic acid],62.08
14,OB(O)c1c(F)c(F)c(F)c(F)c1F [pentafluorophenylboronic acid],50.98
15,CCCOc1ccccc1B(O)O [2-propoxyphenylboronic acid],41.95
16,OB(O)C1CC1 [cyclopropylboronic acid],80.01
17,OB(O)/C=C/c1ccccc1 [trans-2-Phenylvinylboronic acid],65.87

# Tested on: NF-κB
# Test: NF-κB assay for inflammation (nuclear translocation of NF-κB, immunocytochemistry, PCC)
# Conditions: HeLa cells, 40 nM, 2 h; PCC between nuclear and cytoplasmic fraction of NF-κB
row,Inflammation (PCC) 40 nM,SMILES
1,−0.0359,O=Cc1cc(B(O)O)cs1 [5-formylthiophene-3-boronic acid]
2,−0.1236,"CN(C)c1cccc(B(O)O)c1 [3-(N,N-dimethylamino)phenyl boronic acid]"
3,−0.0838,NC(=O)c1ccc(B(O)O)cc1 [4-aminocarbonylphenylboronic acid]
4,−0.0824,OB(O)c1cccc(Cl)c1 [3-chlorophenylboronic acid]
5,−0.0553,OB(O)c1cccnc1Br [2-bromopyridine-3-boronic acid]
6,−0.0211,OB(O)c1ccc(-c2ccccc2)s1 [5-phenyl-2-thienylboronic acid]
7,−0.1402,CCCc1ccc(B(O)O)cc1 [4-propylphenylboronic acid]
8,−0.1162,OB(O)c1cc(Br)cs1 [3-bromothiophene-5-boronic acid]
9,−0.0808,COc1ccc(C#N)cc1B(O)O [5-cyano-2-methoxyphenylboronic acid]
10,0.0154,OB(O)c1c(F)c(F)c(F)c(F)c1F [pentafluorophenylboronic acid]
11,−0.0398,CCCOc1ccccc1B(O)O [2-propoxyphenylboronic acid]
12,−0.0484,OB(O)C1CC1 [cyclopropylboronic acid]
13,−0.1303,OB(O)/C=C/c1ccccc1 [trans-2-Phenylvinylboronic acid]

row,SMILES,Inflammation (PCC) 40 nM
1,O=C(Cl)c1ccc(B2OB(c3ccc(C(=O)Cl)cc3)OB(c3ccc(C(=O)Cl)cc3)O2)cc1 [4-chlorocarbonylphenylboronic anhydride],−0.0664
2,"OB(O)c1ccc(Cl)cc1Cl [2,4-dicholorophenylboronic acid]",−0.0502
3,"CC(C)(C)Oc1ncc(B(O)O)c(OC(C)(C)C)n1 [2,4-di-tert-butoxypyrimidin-5-ylboronic acid]",−0.0888
4,OB(O)c1ccc(O)cc1 [4-hydroxyphenylboronic acid],−0.0665

# Same assay, conditions: HeLa cells, 80 nM, 2 h; PCC between nuclear and cytoplasmic fraction of NF-κB
row,Inflammation (PCC) 80 nM,SMILES
1,0.00225,O=Cc1cc(B(O)O)cs1 [5-formylthiophene-3-boronic acid]
2,−0.0401,"CN(C)c1cccc(B(O)O)c1 [3-(N,N-dimethylamino)phenyl boronic acid]"
3,0.01211,NC(=O)c1ccc(B(O)O)cc1 [4-aminocarbonylphenylboronic acid]
4,0.03311,OB(O)c1cccc(Cl)c1 [3-chlorophenylboronic acid]
5,−0.0396,OB(O)c1cccnc1Br [2-bromopyridine-3-boronic acid]
6,−0.0701,OB(O)c1ccc(-c2ccccc2)s1 [5-phenyl-2-thienylboronic acid]
7,−0.0786,CCCc1ccc(B(O)O)cc1 [4-propylphenylboronic acid]
8,−0.023,OB(O)c1cc(Br)cs1 [3-bromothiophene-5-boronic acid]
9,−0.0523,COc1ccc(C#N)cc1B(O)O [5-cyano-2-methoxyphenylboronic acid]
10,0.0762,OB(O)c1c(F)c(F)c(F)c(F)c1F [pentafluorophenylboronic acid]
11,0.03035,CCCOc1ccccc1B(O)O [2-propoxyphenylboronic acid]
12,0.03475,OB(O)C1CC1 [cyclopropylboronic acid]
13,0.1523,OB(O)/C=C/c1ccccc1 [trans-2-Phenylvinylboronic acid]

row,SMILES,Inflammation (PCC) 80 nM
1,O=C(Cl)c1ccc(B2OB(c3ccc(C(=O)Cl)cc3)OB(c3ccc(C(=O)Cl)cc3)O2)cc1 [4-chlorocarbonylphenylboronic anhydride],−0.0012
2,"OB(O)c1ccc(Cl)cc1Cl [2,4-dicholorophenylboronic acid]",0.09386
3,"CC(C)(C)Oc1ncc(B(O)O)c(OC(C)(C)C)n1 [2,4-di-tert-butoxypyrimidin-5-ylboronic acid]",0.03106
4,OB(O)c1ccc(O)cc1 [4-hydroxyphenylboronic acid],−0.1081

# Same assay, conditions: HeLa cells, 160 nM, 2 h; PCC between nuclear and cytoplasmic fraction of NF-κB
row,Inflammation (PCC) 160 nM,SMILES
1,0.193,O=Cc1cc(B(O)O)cs1 [5-formylthiophene-3-boronic acid]
2,0.1862,"CN(C)c1cccc(B(O)O)c1 [3-(N,N-dimethylamino)phenyl boronic acid]"
3,0,NC(=O)c1ccc(B(O)O)cc1 [4-aminocarbonylphenylboronic acid]
4,0.3965,OB(O)c1cccc(Cl)c1 [3-chlorophenylboronic acid]
5,0.1494,OB(O)c1cccnc1Br [2-bromopyridine-3-boronic acid]
6,0.1187,OB(O)c1ccc(-c2ccccc2)s1 [5-phenyl-2-thienylboronic acid]
7,0.1922,CCCc1ccc(B(O)O)cc1 [4-propylphenylboronic acid]
8,0.1539,OB(O)c1cc(Br)cs1 [3-bromothiophene-5-boronic acid]
9,−0.08086,COc1ccc(C#N)cc1B(O)O [5-cyano-2-methoxyphenylboronic acid]
10,0.2584,OB(O)c1c(F)c(F)c(F)c(F)c1F [pentafluorophenylboronic acid]
11,−0.04954,CCCOc1ccccc1B(O)O [2-propoxyphenylboronic acid]
12,0.1705,OB(O)C1CC1 [cyclopropylboronic acid]
13,0,OB(O)/C=C/c1ccccc1 [trans-2-Phenylvinylboronic acid]

row,SMILES,Inflammation (PCC) 160 nM
1,O=C(Cl)c1ccc(B2OB(c3ccc(C(=O)Cl)cc3)OB(c3ccc(C(=O)Cl)cc3)O2)cc1 [4-chlorocarbonylphenylboronic anhydride],0.09826
2,"OB(O)c1ccc(Cl)cc1Cl [2,4-dicholorophenylboronic acid]",0.3067
3,"CC(C)(C)Oc1ncc(B(O)O)c(OC(C)(C)C)n1 [2,4-di-tert-butoxypyrimidin-5-ylboronic acid]",0.1726
4,OB(O)c1ccc(O)cc1 [4-hydroxyphenylboronic acid],0.2007

# Same assay, conditions: HeLa cells; boronic acids 80 nM, 2 hrs; LPS positive control
row,SMILES,nuclear or cytoplasmic localization of NF-κB (FIG. 4 images)
1,"CC(C)(C)Oc1ncc(B(O)O)c(OC(C)(C)C)n1 [2,4-di-tert-butoxypyrimidin-5-ylboronic acid]",predominantly cytoplasmic NF-κB
